Measured values from BindingDB's records for doi:10.1021/jm970211n (University of Michigan, 1997).

experiment: Inhibition of angiotensin I converting enzyme in silico

Compound	IC50 [nM]
O=C(O)CCc1cc(O)c2n(c1=O)[C@H](C(=O)O)CC2	31.6
CC1(CS)C(=O)N2CCCC(C(=O)O)N2C1=O (stereo unspecified)	3160
O=C(O)[C@@H]1C=CCn2c(=O)n(CS)c(=O)n21	2510
CC(NP(=O)(O)CCc1ccccc1)C(=O)N1CCCC1C(=O)O (stereo unspecified) [1-hydroxy-1-phenylethyl-phosphinoylamino]-propionyl-pyrrolidine-2-carboxylic acid]	25.1
O=C(S[C@@H]1CCC[C@@H]1C(=O)N1CCC[C@H]1C(=O)O)c1ccccc1	63.1
O=C(O)[C@@H]1CCCN1C(=O)[C@@H]1CC[C@H]1S	158
CC(NP(=O)(O)O)C(=O)C1CCCC1C(=O)O (stereo unspecified)	5.01

The remaining lines, values ahead:

IC50 [nM]	Compound
3.16	O=C(O)Cn1c(=O)n2n(c1=O)C(C(=O)O)C=CC2 (stereo unspecified)
12.6	O=C(O)[C@@H]1CC2(CN1C(=O)CP(=O)(O)CCCCc1ccccc1)SCCS2
10	CC(NC(=O)C1CCCCC1S)C(=O)N1CCCC1C(=O)O (stereo unspecified)
0.794	C[C@H](NC(CCC(=O)Nc1ccc(I)cc1)C(=O)O)C(=O)N1CCC[C@H]1C(=O)O (stereo partly specified)
